Test results reported in paper PMC12749811 (Nature Communications, 2025).

How the values were obtained:
[1] = tested on: Cal09-WT virus; type: cell-based, influenza A(H1N1)pdm09 virus A/California/07/2009
[2] = tested on: Cal09-WT virus; type: cell-based, influenza A(H1N1)pdm09 virus A/California/07/2009; remark: listed apart in the source
[3] = tested on: A/Sichuan-Shunqing/SWL11211/2023; type: cell-based, influenza A(H1N1)pdm09 virus
[4] = tested on: A/Fujian-Licheng/SWL1661/2023; type: cell-based, influenza A(H1N1)pdm09 virus
[5] = in vivo; cited from earlier work

## CC(=O)N[C@H]1[C@H]([C@H](O)[C@H](O)CO)OC(C(=O)O)=C[C@@H]1N=C(N)N [zanamivir]
[1]
  sensitivity in plaque-reduction assay: remained fully sensitive

## CCOC(=O)C1=C[C@@H](OC(CC)CC)[C@H](NC(C)=O)[C@@H](N)C1 [oseltamivir]
[2]
  concentration at which virus replication was significantly inhibited: 0.1 µM
[3]
  oseltamivir sensitivity: remained oseltamivir-sensitive
[4]
  oseltamivir sensitivity: remained oseltamivir-sensitive
[5]
  average plasma concentration: 0.33 µM
[1]
  concentration at which plaque diameters were inhibited: 0.01 µM

## O=C1c2c(O)c(=O)ccn2N([C@@H]2c3ccccc3SCc3c2ccc(F)c3F)[C@@H]2COCCN12 [baloxavir]
[1]
  sensitivity in plaque-reduction assay: remained high sensitivity

## CCC(CC)[C@H](NC(C)=O)[C@@H]1[C@H](O)[C@@H](C(=O)O)C[C@H]1N=C(N)N [peramivir]
[1]
  sensitivity in plaque-reduction assay: remained fully sensitive
